pEC50, pKi: −log10 of the molar value. “And” between values parts separate entries of the source, which are not always exact repeats. Identical values can stand only once.
Columns and labels:
[1] = molecular target: T1, hCXCR2 (Homo sapiens, UniProt P25025); assay: CXCR2 SPA assay ([125I]-IL-8 binding, incl. alternative 50 μl and 200 μl protocols); conditions: hCXCR2-CHO membranes
T1 construct: purchased Biosignal / Biosignal Packard; host or cells: CHO
T1 sequence (P25025 1-360): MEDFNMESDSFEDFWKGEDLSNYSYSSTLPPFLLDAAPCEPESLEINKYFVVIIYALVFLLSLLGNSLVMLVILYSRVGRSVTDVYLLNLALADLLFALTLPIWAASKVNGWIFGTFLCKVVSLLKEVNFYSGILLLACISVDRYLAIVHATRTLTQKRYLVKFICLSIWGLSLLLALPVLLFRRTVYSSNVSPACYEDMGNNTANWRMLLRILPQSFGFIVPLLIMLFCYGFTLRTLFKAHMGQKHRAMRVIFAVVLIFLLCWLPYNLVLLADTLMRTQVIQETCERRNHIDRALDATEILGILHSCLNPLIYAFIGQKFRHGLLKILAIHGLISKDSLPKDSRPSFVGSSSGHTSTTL
Protocol: For each well of a 96 well plate, a reaction mixture of 4 μg hCXCR2-CHO overexpressing membranes (Biosignal) and 200 μg/well WGA-SPA beads (Amersham) in 100 μl was prepared in CXCR2 assay buffer (25 mM HEPES, pH 7.4, 2 mM CaCl2, 1 mM MgCl2). A 0.4 nM stock of ligand, [125I]-IL-8 (NEN), was prepared in the CXCR2 assay buffer. 20× stock solutions of test compounds were prepared in DMSO (Sigma). A 6× stock solution of GRO-α (R&D) was prepared in CXCR2 assay buffer. The above solutions were added to a 96-well assay plate (PerkinElmer or Corning) as follows: 10 μl test compound or DMSO, 40 ul CXCR2 assay buffer or GRO-α stock, 100 μl of reaction mixture, 50 μl of ligand stock (Final [Ligand]=0.1 nM). When 40× stock solutions of test compounds in DMSO were prepared, then the above protocol was used except instead 5 μl test compound or DMSO and 45 μl CXCR2 assay buffer were used.
Alternative CXCR2 SPA Assay
Protocol Using the CXCR2 50 μl Assay
For each 50 μl reaction, a working stock of 0.031 μg/μl hCXCR2-CHO over-expressing membranes with a specific activity of 0.4 pmol/mg (Biosignal Packard) and 2.5 μg/μl WGA-SPA beads (Perkin Elmer Life Sciences) was prepared in CXCR2 assay buffer (25 mM HEPES, pH 7.4, 2.0 mM CaCl2, 1 mM MgCl2) (Sigma). This mixture was incubated on ice for 5 minutes. A 0.50 nM stock of ligand, [^125I]-IL-8 (Perkin Elmer Life Sciences), was prepared in the CXCR2 assay buffer. Test compounds were first serially diluted by half-logs in DMSO (Sigma) and then diluted 13.3-fold in CXCR2 assay buffer. The above solutions were added to a Corning NBS (non-binding surface) 96-well assay plate as follows: 20 μl test compound or 7.5% DMSO (final [DMSO]=3%), 20 μl of membranes and SPA bead mixture (final [membrane]=0.625 μg/reaction; final [SPA bead]=50 μg/reaction), 10 μl of ligand stock (final [^125I-IL-8]=0.10 nM). The assay plates were incubated for 2 hours before cpm/well were determined in a Microbeta Trilux counter (Perkin Elmer Life Sciences). IC50 values were quantified using nonlinear regression analysis in GraphPad Prism.
Protocol Using the CXCR2 200 μl Assay
For each 200 μl reaction, a working stock of 0.02 μg/μl hCXCR2-CHO over-expressing membranes with a specific activity of 0.6 pmol/mg (Biosignal Packard) and 2 μg/μl WGA-SPA beads (Perkin Elmer Life Sciences) was prepared in CXCR2 assay buffer (25 mM HEPES, pH 7.4, 2.0 mM CaCl2, 1 mM MgCl2) (Sigma). This mixture was incubated on ice for 5 minutes. A 0.40 nM stock of ligand, [^125I]-IL-8 (Perkin Elmer Life Sciences), was prepared in the CXCR2 assay buffer. Test compounds were first serially diluted by half-logs in DMSO (Sigma) and then diluted […] in CXCR2 assay buffer. The above solutions were added to a Corning NBS (non-binding surface) 96-well assay plate as follows: 50 μl test compound or 10% DMSO (final [DMSO]=2.5%), 100 μl of membranes and SPA bead mixture (final [membrane]=2 μg/reaction; final [SPA bead]=200 μg/reaction), 50 μl of ligand stock (final [^125I-IL-8]=0.10 nM). The assay plates were incubated for 2 hours before cpm/well were determined in a Microbeta Trilux counter (Perkin Elmer Life Sciences). IC50 values were quantified using nonlinear regression analysis in GraphPad Prism.

[2] = molecular target: T2, hCXCR1 (Homo sapiens, UniProt P25024); assay: CXCR1 SPA assay ([125I]-IL-8 binding, incl. alternative Biosignal Packard and Euroscreen membrane protocols); conditions: hCXCR1-CHO membranes
T2 construct: purchased Biosignal / Biosignal Packard; Euroscreen (alternative protocol); host or cells: CHO
T2 sequence (P25024 1-350): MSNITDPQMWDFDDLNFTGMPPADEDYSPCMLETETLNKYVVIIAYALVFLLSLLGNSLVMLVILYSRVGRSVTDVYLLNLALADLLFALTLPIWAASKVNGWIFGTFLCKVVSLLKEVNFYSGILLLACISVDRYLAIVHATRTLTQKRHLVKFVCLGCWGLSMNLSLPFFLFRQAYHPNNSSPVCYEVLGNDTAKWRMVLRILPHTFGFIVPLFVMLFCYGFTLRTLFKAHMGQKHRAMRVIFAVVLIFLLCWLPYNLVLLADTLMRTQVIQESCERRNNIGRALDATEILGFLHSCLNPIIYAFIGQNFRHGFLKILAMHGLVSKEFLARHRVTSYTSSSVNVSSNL
Protocol: For each well of a 96 well plate, a reaction mixture of 10 μg hCXCR1-CHO overexpressing membranes (Biosignal) and 200 μg/well WGA-SPA beads (Amersham) in 100 μl was prepared in CXCR1 assay buffer (25 mM HEPES, pH 7.8, 2 mM CaCl2, 1 mM MgCl2, 125 mM NaCl, 0.1% BSA) (Sigma). A 0.4 nM stock of ligand, [125I]-IL-8 (NEN) was prepared in the CXCR1 assay buffer. 20× stock solutions of test compounds were prepared in DMSO (Sigma). A 6× stock solution of IL-8 (R&D) was prepared in CXCR2 assay buffer. The above solutions were added to a 96-well assay plate (PerkinElmer) as follows: 10 μl test compound or DMSO, 40 μl CXCR1 assay buffer or IL-8 stock, 100 μl of reaction mixture, 50 μl of ligand stock (Final [Ligand]=0.1 nM).
Alternative CXCR1 SPA Assay
Protocol Using CXCR1-Expressing Membranes from Biosignal Packard
For each 50 μl reaction, a working stock of 0.25 μg/μl hCXCR1-CHO over-expressing membranes with a specific activity of 0.05 pmol/mg (Biosignal Packard) and 25 μg/μl WGA-SPA beads (Perkin Elmer Life Sciences) was prepared in CXCR1 assay buffer (25 mM HEPES, pH 7.8, 0.1 mM CaCl2, 1 mM MgCl2, 100 mM NaCl) (Sigma). […] The assay plates were incubated for 4 hours before cpm/well were determined in a Microbeta Trilux counter (Perkin Elmer Life Sciences). IC50 values were quantified using nonlinear regression analysis in GraphPad Prism. […]

[3] = molecular target: T3, CCR7 (Homo sapiens, UniProt P32248); assay: CCR7 [35S]GTPγS exchange assay (SPA, Ba/F3-CCR7 membranes, MIP-3β); type: biochemical; conditions: 2 nM MIP-3β
T3 construct: expressed in transfected cells; host or cells: Ba/F3
T3 sequence (P32248 25-378): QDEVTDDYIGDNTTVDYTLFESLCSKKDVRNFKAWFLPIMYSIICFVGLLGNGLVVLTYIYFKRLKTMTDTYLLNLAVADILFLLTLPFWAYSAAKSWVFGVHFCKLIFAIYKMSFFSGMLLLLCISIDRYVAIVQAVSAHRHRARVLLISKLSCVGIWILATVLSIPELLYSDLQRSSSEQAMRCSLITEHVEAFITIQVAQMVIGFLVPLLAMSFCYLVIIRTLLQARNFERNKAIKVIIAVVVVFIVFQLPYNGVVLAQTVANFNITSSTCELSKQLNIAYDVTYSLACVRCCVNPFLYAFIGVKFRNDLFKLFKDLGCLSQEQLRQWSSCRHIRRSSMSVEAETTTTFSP
Protocol: CCR7 Membrane Preparation.
Ba/F3-CCR7 membranes were prepared as previously described (Hipkin et al., J. Biol. Chem., 272, 1997, 13869-76). Cells were pelleted by centrifugation, incubated in homogenization buffer (10 mM Tris-HCl, 5 mM EDTA, 3 mM EGTA, pH 7.6) and 1 μM PMSF for 30 min. on ice. The cells were then lysed with a Dounce homogenizer using stirrer type RZR3 polytron homogenizer (Caframo, Wiarton, Ont.) with 12 strokes at 900 RPM. The intact cells and nuclei were removed by centrifugation at 500×g for 5 min. The cell membranes in the supernatant were then pelleted by centrifugation at 100,000×g for 30 min. The membranes were then resuspended in glygly buffer (20 mM glycylglycine, 1 mM MgCl2, 250 mM sucrose, pH 7.2), aliquoted, quick frozen and stored at −80° C.
CCR7 [^35S]GTPγS Exchange Assay.
The exchange of guanosine 5′-[γ-^35S]triphospate ([^35S]GTPγS, triethylammonium salt; specific activity=1250 Ci/mmol; NEN Boston, Mass.) was measured using a scintillation proximity assay (SPA) as previously described (Cox, et. al., Mol. Pharmacol., 59, 2001, 707-15). […] Membrane-bound [^35S]GTPγS was measured using a 1450 Microbeta Trilux counter (Wallac, Gaithersburg, Md.).

Row | Compound | pKi [1] | pKi [2] | pEC50 [3]
1 | CCOC(=O)C1=C(Nc2cccc(C(=O)N(C)C)c2O)C(N[C@H](CC)c2ccc(C)o2)=NS1(=O)=O [Example 1] | 7.29 to 8.12 | – | –
2 | CC[C@@H](NC1=NS(=O)(=O)C=C1Nc1cccc(C(=O)N(C)C)c1O)c1ccc(C)o1 [Example 2] | 8.12 and 7.29 to 8.12 | – | –
3 | CCOC(=O)C1=C(N[C@H](CC)c2ccccc2)C(Nc2cccc(C(=O)N(C)C)c2O)=NS1(=O)=O [Example 3] | 7.29 to 8.12 | – | –
4 | CC[C@@H](NC1=CS(=O)(=O)N=C1Nc1cccc(C(=O)N(C)C)c1O)c1ccccc1 [Example 4] | 7.29 to 8.12 | – | –
5 | CCOC(=O)C1=C(Nc2cccc(C(=O)N(C)C)c2O)C(N[C@@H](c2cc(C)c(C)o2)C(C)C)=NS1(=O)=O [Example 5] | 7.29 to 8.12 | – | –
6 | Cc1cc([C@H](NC2=NS(=O)(=O)C=C2Nc2cccc(C(=O)N(C)C)c2O)C(C)C)oc1C [Example 6] | 7.72 and 7.29 to 8.12 | 6.46 | –
7 | CCOC(=O)C1=C(Nc2cccc(C(=O)N(C)C)c2O)C(N[C@H](CC)c2cc(C(C)C)co2)=NS1(=O)=O [Example 162] | – | – | 5.02

Reference: patent publication US7671212B2, “Isothiazole dioxides as CXC- and CC-chemokine receptor ligands” (Schering Corporation, priority 2003, dated 2010)
